The target in data set [1] is T1, Peptidyl-prolyl cis-trans isomerase FKBP4 (Homo sapiens, UniProt Q02790).
T1 sequence (Q02790 whole entry): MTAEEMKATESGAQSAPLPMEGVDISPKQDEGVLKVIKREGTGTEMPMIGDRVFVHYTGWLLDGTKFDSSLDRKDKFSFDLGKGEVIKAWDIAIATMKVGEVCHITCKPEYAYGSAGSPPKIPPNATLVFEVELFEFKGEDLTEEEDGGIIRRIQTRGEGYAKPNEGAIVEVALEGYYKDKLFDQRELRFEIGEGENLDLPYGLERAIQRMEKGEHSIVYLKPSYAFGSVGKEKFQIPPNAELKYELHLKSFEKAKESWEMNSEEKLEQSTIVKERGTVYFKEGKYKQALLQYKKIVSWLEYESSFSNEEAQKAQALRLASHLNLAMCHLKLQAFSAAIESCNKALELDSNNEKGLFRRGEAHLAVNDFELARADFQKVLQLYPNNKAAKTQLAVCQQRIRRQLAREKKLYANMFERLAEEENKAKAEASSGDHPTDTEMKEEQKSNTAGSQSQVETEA
Briefly: Inhibition of GST-tagged human FKBP52 expressed in Escherichia coli BL21 (DE3) using NH2-EDASRMEEVD-COOH peptide as substrate preincubated for 15 mins followed by substrate addition measured after 15 mins by Alpha Screen assay. (In general: Bead proximity is the source of the signal in Alpha formats.)

The target in data set [2] is T2, Serine/threonine-protein phosphatase 5 (Homo sapiens, UniProt P53041).
T2 sequence (P53041 whole entry): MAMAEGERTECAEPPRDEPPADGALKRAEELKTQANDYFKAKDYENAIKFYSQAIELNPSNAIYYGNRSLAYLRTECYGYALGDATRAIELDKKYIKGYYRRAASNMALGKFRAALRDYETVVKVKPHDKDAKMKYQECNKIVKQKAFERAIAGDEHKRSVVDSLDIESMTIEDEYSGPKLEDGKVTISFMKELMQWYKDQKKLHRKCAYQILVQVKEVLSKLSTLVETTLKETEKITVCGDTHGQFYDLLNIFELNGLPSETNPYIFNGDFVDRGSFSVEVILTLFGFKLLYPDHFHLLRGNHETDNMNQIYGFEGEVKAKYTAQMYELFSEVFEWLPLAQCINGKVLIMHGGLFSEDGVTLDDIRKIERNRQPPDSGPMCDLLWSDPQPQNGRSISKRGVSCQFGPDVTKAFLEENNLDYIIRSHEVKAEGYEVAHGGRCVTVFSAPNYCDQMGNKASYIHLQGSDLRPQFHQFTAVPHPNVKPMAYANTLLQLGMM
The experiment in a line: Inhibition of GST-tagged human PP5 expressed in Escherichia coli BL21 (DE3) using NH2-EDASRMEEVD-COOH peptide as substrate preincubated for 15 mins followed by substrate addition measured after 15 mins by Alpha Screen assay.

For data set [3], the target named is T3, E3 ubiquitin-protein ligase CHIP (Homo sapiens, UniProt Q9UNE7).
T3 sequence (Q9UNE7 whole entry): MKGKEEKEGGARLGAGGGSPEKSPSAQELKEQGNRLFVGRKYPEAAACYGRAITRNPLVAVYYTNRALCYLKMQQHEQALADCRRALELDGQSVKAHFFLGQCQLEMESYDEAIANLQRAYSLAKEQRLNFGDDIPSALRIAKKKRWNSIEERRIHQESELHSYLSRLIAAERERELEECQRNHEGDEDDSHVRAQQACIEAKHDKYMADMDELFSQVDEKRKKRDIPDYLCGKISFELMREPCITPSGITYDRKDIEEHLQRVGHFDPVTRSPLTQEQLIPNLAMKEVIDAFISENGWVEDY
Briefly: Inhibition of GST-tagged human CHIP expressed in Escherichia coli BL21 (DE3) using NH2-EDASRMEEVD-COOH peptide as substrate preincubated for 15 mins followed by substrate addition measured after 15 mins by Alpha Screen assay.

Data set [4] has as its target Stress-induced-phosphoprotein 1 (Homo sapiens, UniProt P31948). Briefly: Inhibition of GST-tagged human HOP expressed in Escherichia coli BL21 (DE3) using NH2-EDASRMEEVD-COOH peptide as substrate preincubated for 15 mins followed by substrate addition measured after 15 mins by Alpha Screen assay.
For data set [5], the target named is T4, AH receptor-interacting protein (Homo sapiens, UniProt O00170).
T4 sequence (O00170 whole entry): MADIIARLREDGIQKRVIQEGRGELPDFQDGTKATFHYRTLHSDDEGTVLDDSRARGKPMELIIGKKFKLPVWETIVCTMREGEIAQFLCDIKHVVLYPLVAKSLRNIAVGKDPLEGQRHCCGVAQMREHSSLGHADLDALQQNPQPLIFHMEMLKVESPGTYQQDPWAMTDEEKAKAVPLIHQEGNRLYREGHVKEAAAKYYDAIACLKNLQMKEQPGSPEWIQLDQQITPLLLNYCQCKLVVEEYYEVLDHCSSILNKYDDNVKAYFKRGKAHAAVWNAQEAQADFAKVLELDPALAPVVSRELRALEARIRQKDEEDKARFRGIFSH
Briefly: Inhibition of GST-tagged human AIP expressed in Escherichia coli BL21 (DE3) using NH2-EDASRMEEVD-COOH peptide as substrate preincubated for 15 mins followed by substrate addition measured after 15 mins by Alpha Screen assay.

Data set [6] has as its target Small glutamine-rich tetratricopeptide repeat-containing protein alpha (Homo sapiens, UniProt O43765). The experiment in a line: Inhibition of GST-tagged human SGTA expressed in Escherichia coli BL21 (DE3) using NH2-EDASRMEEVD-COOH peptide as substrate preincubated for 15 mins followed by substrate addition measured after 15 mins by Alpha Screen assay.
The target of data set [7] is T5, DnaJ homolog subfamily C member 7 (Homo sapiens, UniProt Q99615).
T5 sequence (Q99615 whole entry): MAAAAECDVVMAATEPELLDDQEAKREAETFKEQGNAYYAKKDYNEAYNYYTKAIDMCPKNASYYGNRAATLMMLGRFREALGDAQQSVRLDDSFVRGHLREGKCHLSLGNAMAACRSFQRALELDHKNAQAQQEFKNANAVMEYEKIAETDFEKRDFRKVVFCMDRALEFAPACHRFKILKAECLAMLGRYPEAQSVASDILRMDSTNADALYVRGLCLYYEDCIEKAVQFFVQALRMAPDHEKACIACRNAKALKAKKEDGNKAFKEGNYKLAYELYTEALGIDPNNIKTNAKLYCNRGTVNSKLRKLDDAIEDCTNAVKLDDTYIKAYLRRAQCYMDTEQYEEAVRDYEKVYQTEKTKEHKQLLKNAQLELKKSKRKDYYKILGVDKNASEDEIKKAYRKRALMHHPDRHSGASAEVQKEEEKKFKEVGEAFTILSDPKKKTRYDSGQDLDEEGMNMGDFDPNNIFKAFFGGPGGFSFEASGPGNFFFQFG
The experiment in a line: Inhibition of GST-tagged human DNAJC7 expressed in Escherichia coli BL21 (DE3) using NH2-EDASRMEEVD-COOH peptide as substrate preincubated for 15 mins followed by substrate addition measured after 15 mins by Alpha Screen assay.

Data set [8] has as its target T6, Mitochondrial import receptor subunit TOM70 (Homo sapiens, UniProt O94826).
T6 sequence (O94826 whole entry): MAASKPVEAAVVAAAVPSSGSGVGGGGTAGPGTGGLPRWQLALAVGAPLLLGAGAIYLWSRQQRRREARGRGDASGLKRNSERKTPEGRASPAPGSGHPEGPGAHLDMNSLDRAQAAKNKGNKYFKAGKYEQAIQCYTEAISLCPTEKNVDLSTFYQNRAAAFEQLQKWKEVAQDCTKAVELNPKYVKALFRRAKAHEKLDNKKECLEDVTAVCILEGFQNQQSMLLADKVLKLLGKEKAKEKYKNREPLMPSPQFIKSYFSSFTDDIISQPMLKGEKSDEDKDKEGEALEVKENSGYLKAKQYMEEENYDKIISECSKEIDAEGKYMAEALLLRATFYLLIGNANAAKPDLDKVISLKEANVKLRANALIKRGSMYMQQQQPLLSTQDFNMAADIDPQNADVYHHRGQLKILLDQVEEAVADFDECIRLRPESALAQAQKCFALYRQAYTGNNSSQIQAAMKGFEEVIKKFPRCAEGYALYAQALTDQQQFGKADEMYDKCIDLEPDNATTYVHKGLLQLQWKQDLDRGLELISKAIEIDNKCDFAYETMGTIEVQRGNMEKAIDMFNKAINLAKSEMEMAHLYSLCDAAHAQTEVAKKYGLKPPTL
The experiment in a line: Inhibition of GST-tagged human TOM70 expressed in Escherichia coli BL21 (DE3) using NH2-EDASRMEEVD-COOH peptide as substrate preincubated for 15 mins followed by substrate addition measured after 15 mins by Alpha Screen assay.

Data set [9] in a line: Inhibition of GST-tagged FKBP51 Y355F mutant (unknown origin) using NH2-EDASRMEEVD-COOH peptide as substrate preincubated for 15 mins followed by substrate addition measured after 15 mins by Alpha Screen assay. Also on record: species or system Homo sapiens.
Data set [10] can be described thus: Inhibition of GST-tagged FKBP51 N381Y mutant (unknown origin) using NH2-EDASRMEEVD-COOH peptide as substrate preincubated for 15 mins followed by substrate addition measured after 15 mins by Alpha Screen assay. Also on record: species or system Homo sapiens.
The conditions of data set [11]: buffer.
Description: Solubility of compound in aqueous solution
In data set [12] the target is T7, Peptidyl-prolyl cis-trans isomerase FKBP5 (Homo sapiens, UniProt Q13451).
T7 sequence (Q13451 whole entry): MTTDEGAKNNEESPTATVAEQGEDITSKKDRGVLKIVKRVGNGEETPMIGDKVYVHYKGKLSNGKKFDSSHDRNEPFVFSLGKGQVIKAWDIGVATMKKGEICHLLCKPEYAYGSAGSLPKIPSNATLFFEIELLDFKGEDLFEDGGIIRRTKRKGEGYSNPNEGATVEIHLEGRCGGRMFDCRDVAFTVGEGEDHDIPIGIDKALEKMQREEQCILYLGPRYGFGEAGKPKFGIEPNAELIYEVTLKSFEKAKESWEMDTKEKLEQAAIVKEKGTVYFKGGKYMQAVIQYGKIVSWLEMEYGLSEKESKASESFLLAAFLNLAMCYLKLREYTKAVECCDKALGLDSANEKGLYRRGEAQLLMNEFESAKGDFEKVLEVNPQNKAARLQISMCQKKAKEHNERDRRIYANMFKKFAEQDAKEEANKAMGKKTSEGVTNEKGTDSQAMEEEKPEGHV
Briefly: Inhibition of GST-tagged human FKBP51 expressed in Escherichia coli BL21 (DE3) using NH2-EDASRMEEVD-COOH peptide as substrate preincubated for 15 mins followed by substrate addition measured after 15 mins by Alpha Screen assay.

The values that follow come from ChEMBL document CHEMBL5523701, “Structure-based discovery of small molecule inhibitors of FKBP51-Hsp90 protein-protein interaction” (Eur J Med Chem, 2024).

One may read the IC50 as the concentration needed to halve the response being measured. Read a low IC50 as greater potency in that assay.

Where only a bound is given, the exact number is not on record here.

Sequence of Small glutamine-rich tetratricopeptide repeat-containing protein alpha (O43765 whole entry): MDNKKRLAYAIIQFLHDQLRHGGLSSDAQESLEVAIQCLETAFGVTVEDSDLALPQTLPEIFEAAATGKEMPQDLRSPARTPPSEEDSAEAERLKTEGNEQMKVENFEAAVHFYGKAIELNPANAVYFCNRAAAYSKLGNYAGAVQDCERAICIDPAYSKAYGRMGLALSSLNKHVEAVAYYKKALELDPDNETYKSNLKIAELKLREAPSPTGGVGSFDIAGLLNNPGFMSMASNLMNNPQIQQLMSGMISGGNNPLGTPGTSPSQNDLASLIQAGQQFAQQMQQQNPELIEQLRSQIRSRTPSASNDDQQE
Sequence of Stress-induced-phosphoprotein 1 (P31948 whole entry): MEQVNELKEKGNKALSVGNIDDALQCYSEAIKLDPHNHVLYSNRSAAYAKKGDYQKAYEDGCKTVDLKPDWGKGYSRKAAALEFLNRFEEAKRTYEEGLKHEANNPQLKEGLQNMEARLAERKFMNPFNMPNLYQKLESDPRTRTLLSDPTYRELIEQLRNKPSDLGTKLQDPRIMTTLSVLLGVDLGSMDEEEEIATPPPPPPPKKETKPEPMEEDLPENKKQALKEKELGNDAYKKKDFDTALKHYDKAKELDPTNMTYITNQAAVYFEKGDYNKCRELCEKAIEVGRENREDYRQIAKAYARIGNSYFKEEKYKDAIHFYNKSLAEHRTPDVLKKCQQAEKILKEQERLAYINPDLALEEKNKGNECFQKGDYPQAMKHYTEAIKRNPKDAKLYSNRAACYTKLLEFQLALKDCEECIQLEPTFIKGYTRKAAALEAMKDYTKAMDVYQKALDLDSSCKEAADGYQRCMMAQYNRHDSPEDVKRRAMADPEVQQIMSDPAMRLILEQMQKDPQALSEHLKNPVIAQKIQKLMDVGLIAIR

With `CCOC(=O)CC(=O)CSc1nc(C)c2cc(OCC)ccc2n1`, the IC50 in data set [1] turned out to be 9 µM.

For `CCC1CCc2c(sc(NC(=O)CCCC(=O)Nc3sc4c(c3C(N)=O)CCC(CC)C4)c2C(N)=O)C1` (stereo not drawn), the solubility entry was “Insoluble”. Moreover, half-maximal inhibition in data set [2] (IC50) required 0.03 µM. The same compound yielded an IC50 in [3] of 1 µM. The compound further gave an IC50 in [4] of 10 µM. Further, in [5], the IC50 came to 10 µM. The compound also came in with an IC50 in data set [6] of 0.1 µM. In data set [7], this compound gave an IC50 of 1 µM. This compound also gave an IC50 in [8] of 1.5 µM. The same compound showed an IC50 in data set [9] of 40 µM. The IC50 in data set [10] worked out at 0.05 µM. Moreover, the solubility entry in [11] was “Insoluble”.

For the compound `CCc1nnc(NC(=O)CSc2nc(-c3ccc(C)cc3)cc(-c3ccc(OC)cc3)c2C#N)o1`, the figures for the IC50 in data set [12] and in data set [1] were 2 µM and 3 µM, respectively.

Compound `CCOC(=O)c1c(NC(=O)CSc2nnc(-c3cccc(O)c3)o2)sc(C)c1C` returned an IC50 in data set [1] of 3 µM.

As to `O=C(CSc1nnc(-c2ccc(S(=O)(=O)N3CCCC3)cc2)o1)Nc1ccc(F)cc1`, the IC50 in data set [1] is 6 µM.

`CCOc1ccc2cc(C#N)c(SCC(=O)Nc3cccc(F)c3)nc2c1`: the IC50 in data set [1] came out at 6 µM.

With `Cc1ccc(NC(=O)c2cc(NC(=O)c3ccccc3)cc(NC(=O)c3ccccc3)c2)cc1C`, the IC50 in data set [1] is above 100 µM.

As to `CCC(=O)Nc1ccc(NC(=O)CSc2nc3cc4c(cc3cc2C)CCC4)cc1C`, the IC50 in [1] worked out at 5 µM.

In data set [1], `CCC(=O)Nc1ccc(NC(=O)CSc2nc3cc4c(cc3cc2C)CCC4)cc1` registered an IC50 of 3 µM.

In turn, `CCOc1ccc2cc(C#N)c(SCC(=O)NCCc3ccccc3)nc2c1` showed an IC50 in [1] of 5 µM.

`CCOC(=O)c1c(NC(=O)CSc2n[nH]c(CNc3ccccc3)n2)sc(C)c1C`: 8 µM corresponded to half-maximal inhibition in [1] (IC50).

Compound `CCS(=O)(=O)Nc1ccc(-c2nnc(SCC(=O)c3c(C)c(C)cc(C)c3C)o2)cc1` displayed an IC50 in data set [1] of 6 µM.
